# Source: the supplement of paper PMC10307832
# Columns and labels:
# Test in all cases: relative viability (nuclei count vs DMSO), 5 days (fraction); higher = more cells survive
# [1] = test system: SW 1573
# Method in brief: (§1)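 After 5 days of treatment, lung cancer cells in 1536-well plates were fixed and stained in a single step (final 0.05% Triton X-100, 1% formaldehyde, 1 ug/ml Hoechst) and their nuclei counted on 4× images. Treatment had been applied by pin tool the day after seeding as one drug alone or as a fixed anchor-drug dose with five library-drug doses (not always all listed) in √10 steps. Relative viability is the nuclei count of treated wells divided by that of vehicle wells, and values are medians of duplicate plates.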
# [2] = test system: NCI-H1355
# Method in brief: as §1
# [3] = test system: SK-LU-1
# Method in brief: as §1
# [4] = test system: NCI-H1650
# Method in brief: as §1
# [5] = test system: UMC-11
# Method in brief: as §1
# [6] = test system: EKVX
# Method in brief: as §1
# [7] = test system: NCI-H520
# Method in brief: as §1
# [8] = test system: NCI-H1792
# Method in brief: as §1
# [9] = test system: NCI-H2342
# Method in brief: as §1
# [10] = test system: EMC-BAC-2
# Method in brief: as §1
# [11] = test system: CAL-12T
# Method in brief: as §1
# [12] = test system: NCI-H2009
# Method in brief: as §1
# [13] = test system: ABC-1
# Method in brief: as §1
# [14] = test system: NCI-H2085
# Method in brief: as §1
# [15] = test system: NCI-H522
# Method in brief: as §1
# [16] = test system: NCI-H661
# Method in brief: as §1
# [17] = test system: SK-MES-1
# Method in brief: as §1
# [18] = test system: NCI-H2087
# Method in brief: as §1
# [19] = test system: BEN
# Method in brief: as §1
# [20] = test system: LC-2-ad
# Method in brief: as §1
# [21] = test system: NCI-H1734
# Method in brief: as §1
# [22] = test system: H3255
# Method in brief: as §1
# [23] = test system: NCI-H838
# Method in brief: as §1
# [24] = test system: LU99A
# Method in brief: as §1
# [25] = test system: NCI-H1993
# Method in brief: as §1
structure (smiles),measurement,setting,value
Nc1cccc2c1CN(C1CCC(=O)NC1=O)C2=O (centres undefined) [Lenalidomide] + CC(=O)c1c(C)c2cnc(Nc3ccc(N4CCNCC4)cn3)nc2n(C2CCCC2)c1=O [Palbociclib] (partner 0.5 µM),relative viability,[1]; first compound 0.253 µM,0.239
same,relative viability,[1]; first compound 0.8 µM,0.384
same,relative viability,[1]; first compound 2.53 µM,0.399
same,relative viability,[1]; first compound 8 µM,0.421
same,relative viability,[2]; first compound 0.253 µM,0.397
same,relative viability,[2]; first compound 0.8 µM,0.372
same,relative viability,[2]; first compound 2.53 µM,0.413
same,relative viability,[2]; first compound 8 µM,0.286
same,relative viability,[3]; first compound 0.253 µM,0.366
same,relative viability,[3]; first compound 0.8 µM,0.342
same,relative viability,[3]; first compound 2.53 µM,0.413
same,relative viability,[3]; first compound 8 µM,0.354
same,relative viability,[4]; first compound 0.253 µM,0.339
same,relative viability,[4]; first compound 0.8 µM,0.279
same,relative viability,[4]; first compound 2.53 µM,0.343
same,relative viability,[4]; first compound 8 µM,0.453
same,relative viability,[5]; first compound 0.253 µM,0.328
same,relative viability,[5]; first compound 0.8 µM,0.363
same,relative viability,[5]; first compound 2.53 µM,0.308
same,relative viability,[5]; first compound 8 µM,0.285
same,relative viability,[6]; first compound 0.253 µM,0.415
same,relative viability,[6]; first compound 0.8 µM,0.309
same,relative viability,[6]; first compound 2.53 µM,0.355
same,relative viability,[6]; first compound 8 µM,0.372
same,relative viability,[7]; first compound 0.253 µM,0.225
same,relative viability,[7]; first compound 0.8 µM,0.216
same,relative viability,[7]; first compound 2.53 µM,0.236
same,relative viability,[7]; first compound 8 µM,0.2
same,relative viability,[8]; first compound 0.253 µM,0.656
same,relative viability,[8]; first compound 0.8 µM,0.754
same,relative viability,[8]; first compound 2.53 µM,0.745
same,relative viability,[8]; first compound 8 µM,0.675
same,relative viability,[9]; first compound 0.253 µM,0.551
same,relative viability,[9]; first compound 0.8 µM,0.53
same,relative viability,[9]; first compound 2.53 µM,0.502
same,relative viability,[9]; first compound 8 µM,0.476
same,relative viability,[10]; first compound 0.253 µM,0.503
same,relative viability,[10]; first compound 0.8 µM,0.473
same,relative viability,[10]; first compound 2.53 µM,0.52
same,relative viability,[10]; first compound 8 µM,0.448
same,relative viability,[11]; first compound 0.253 µM,0.402
same,relative viability,[11]; first compound 0.8 µM,0.579
same,relative viability,[11]; first compound 2.53 µM,0.785
same,relative viability,[11]; first compound 8 µM,0.472
same,relative viability,[12]; first compound 0.253 µM,0.206
same,relative viability,[12]; first compound 0.8 µM,0.232
same,relative viability,[12]; first compound 2.53 µM,0.218
same,relative viability,[12]; first compound 8 µM,0.221
same,relative viability,[13]; first compound 0.253 µM,0.577
same,relative viability,[13]; first compound 0.8 µM,0.518
same,relative viability,[13]; first compound 2.53 µM,0.904
same,relative viability,[13]; first compound 8 µM,0.671
same,relative viability,[14]; first compound 0.253 µM,0.48
same,relative viability,[14]; first compound 0.8 µM,0.496
same,relative viability,[14]; first compound 2.53 µM,0.432
same,relative viability,[14]; first compound 8 µM,0.464
same,relative viability,[15]; first compound 0.253 µM,0.91
same,relative viability,[15]; first compound 0.8 µM,1
same,relative viability,[15]; first compound 2.53 µM,1.19
same,relative viability,[15]; first compound 8 µM,0.716
same,relative viability,[16]; first compound 0.253 µM,0.386
same,relative viability,[16]; first compound 0.8 µM,0.377
same,relative viability,[16]; first compound 2.53 µM,0.348
same,relative viability,[16]; first compound 8 µM,0.357
same,relative viability,[17]; first compound 0.253 µM,0.317
same,relative viability,[17]; first compound 0.8 µM,0.312
same,relative viability,[17]; first compound 2.53 µM,0.278
same,relative viability,[17]; first compound 8 µM,0.156
same,relative viability,[18]; first compound 0.253 µM,0.248
same,relative viability,[18]; first compound 2.53 µM,0.192
same,relative viability,[18]; first compound 8 µM,0.196
same,relative viability,[19]; first compound 0.253 µM,0.478
same,relative viability,[19]; first compound 0.8 µM,0.496
same,relative viability,[19]; first compound 2.53 µM,0.418
same,relative viability,[19]; first compound 8 µM,0.556
same,relative viability,[20]; first compound 0.253 µM,0.549
same,relative viability,[20]; first compound 0.8 µM,0.551
same,relative viability,[20]; first compound 2.53 µM,0.533
same,relative viability,[20]; first compound 8 µM,0.531
same,relative viability,[21]; first compound 0.253 µM,0.348
same,relative viability,[21]; first compound 0.8 µM,0.392
same,relative viability,[21]; first compound 2.53 µM,0.364
same,relative viability,[21]; first compound 8 µM,0.291
same,relative viability,[22]; first compound 0.253 µM,0.312
same,relative viability,[22]; first compound 0.8 µM,0.302
same,relative viability,[22]; first compound 2.53 µM,0.314
same,relative viability,[22]; first compound 8 µM,0.314
same,relative viability,[23]; first compound 0.253 µM,0.172
same,relative viability,[23]; first compound 0.8 µM,0.19
same,relative viability,[23]; first compound 2.53 µM,0.256
same,relative viability,[23]; first compound 8 µM,0.18
same,relative viability,[24]; first compound 0.253 µM,0.409
same,relative viability,[24]; first compound 0.8 µM,0.39
same,relative viability,[24]; first compound 2.53 µM,0.361
same,relative viability,[24]; first compound 8 µM,0.286
same,relative viability,[25]; first compound 0.253 µM,0.789
same,relative viability,[25]; first compound 0.8 µM,0.659
same,relative viability,[25]; first compound 2.53 µM,0.729
same,relative viability,[25]; first compound 8 µM,0.455
